This assay has as its system platelet-derived growth factor receptor kinase.

On to `COc1cc(/C=C(\C#N)C(N)=O)cc(CSc2nc3ccccc3s2)c1O` [AG825], for which the “fold higher IC50 for platelet-derived growth factor receptor kinase than for Erbb2” value is reported as “more than 100 fold”.

For the origin of these results see patent US20080119530A1, “Method for treatment and prevention of ultraviolet light induced skin pathologies” (priority 2006, published 2008).
